In patent US20060046988A1, “Methoprene formulations for the control of tick infestations” (priority 2004, published 2006):
Where two headings read alike, the source gives them in different places.

Tested on: Rhipicephalus sanguineus
Assay: In vitro immersion of engorged female ticks in (S)-methoprene: oviposition, egg mass weight, egg hatch
Conditions: for Eggs Weight: Day 13; for Eggs Hatch (%): 48 days after exposure; for inhibition at 100 ppm / inhibition at 1000 ppm / inhibition at 10000 ppm / inhibition at 100000 ppm: Rhipicephalus sanguineus; for Egg Mass Per Tick / Total Egg Mass / Total Viable Egg Mass / Viable Egg Mass Per Tick / Reduction in Ticks Laying Eggs: replicates combined
Description: The effect of (S)-methoprene on oviposition, egg mass weights, and egg eclosion was measured in adult females of a colonized strain of the brown dog tick, Rhipicephalus sanguineus. Approximately fifty R. sanguineus ticks were fed on twelve dogs each. Fully engorged females that dropped from the dogs over a period of two days were collected and combined into replicates. The following replicates were formed: Replicate A-50 ticks, Replicate B-40 ticks, and Replicate C-10 ticks. From each replicate A-C, 5 groups of equal numbers of ticks were formed, each group of ticks having similar combined body weights. Each of the 5 groups of ticks was randomly allocated to a treatment group.
The treatment groups were: Treatment I-Control: acetone/water (40%: 60%); Treatment 2-100 ppm (S)-methoprene dissolved in acetone/water (40:60); Treatment 3-1,000 ppm (S)-methoprene dissolved in acetone/water (40:60); Treatment 4-10,000 ppm (S)-methoprene dissolved in acetone/water (40:60); and Treatment 5-100,000 ppm (S)-methoprene dissolved in acetone/water (40:60). Each group of ticks was immersed in the appropriate test solution for two mins, after which they were removed, dried on a paper towel and placed in a clean container. All ticks in all treatment groups were kept in an environmental chamber maintained at 26-27° Celsius and 65-87% relative humidity. The number of ticks that laid eggs and total egg mass weights for each replicate of each treatment group was recorded 13 days after exposure to treatment. Additionally, an estimation of percentage of egg hatching for each replicate in each treatment group was recorded 48 days after exposure to treatment.
The number of ticks laying eggs, egg mass weights, percentage of eggs that hatched, and weight of viable eggs are provided in Table 1.

[1] = 100 ppm, Replicate A, 10 ticks treated
[2] = 100 ppm, Replicate B, 8 ticks treated
[3] = 100 ppm, Replicate C, 2 ticks treated
[4] = 1,000 ppm, Replicate A, 10 ticks treated
[5] = 1,000 ppm, Replicate B, 8 ticks treated
[6] = 1,000 ppm, Replicate C, 2 ticks treated
[7] = 10,000 ppm, Replicate A, 10 ticks treated
[8] = 10,000 ppm, Replicate B, 8 ticks treated
[9] = 10,000 ppm, Replicate C, 2 ticks treated
[10] = 100,000 ppm, Replicate A, 10 ticks treated
[11] = 100,000 ppm, Replicate B, 8 ticks treated
[12] = 100,000 ppm, Replicate C, 2 ticks treated
[13] = Treatment 3: 1,000 ppm, compared to control
[14] = Treatment 4: 10,000 ppm, compared to control
[15] = Treatment 5: 100,000 ppm, compared to control

COC(C)(C)CCC[C@H](C)C/C=C/C(C)=C/C(=O)OC(C)C [(S)-methoprene]
Eggs Viable [1]: 1.65 g
Number of Ticks Laying Eggs (Day 13) [1]: 10
Eggs Weight [1]: 1.67 g
Eggs Hatch (%) (100 ppm, Replicate A): 99%
Eggs Viable [2]: 1.36 g
Number of Ticks Laying Eggs (Day 13) [2]: 8
Eggs Weight [2]: 1.36 g
Eggs Hatch (%) (100 ppm, Replicate B): 100%
Eggs Viable [3]: 0.18 g
Number of Ticks Laying Eggs (Day 13) [3]: 2
Eggs Weight [3]: 0.35 g
Eggs Hatch (%) (100 ppm, Replicate C): 50%
Eggs Viable [4]: 0.26 g
Number of Ticks Laying Eggs (Day 13) [4]: 9
Eggs Weight [4]: 1.03 g
Eggs Hatch (%) (1,000 ppm, Replicate A): 25%
Eggs Viable [5]: 0.29 g
Number of Ticks Laying Eggs (Day 13) [5]: 8
Eggs Weight [5]: 0.95 g
Eggs Hatch (%) (1,000 ppm, Replicate B): 30%
Eggs Viable [6]: 0.10 g
Number of Ticks Laying Eggs (Day 13) [6]: 2
Eggs Weight [6]: 0.28 g
Eggs Hatch (%) (1,000 ppm, Replicate C): 35%
Eggs Viable [7]: 0 g
Number of Ticks Laying Eggs (Day 13) [7]: 10
Eggs Weight [7]: 0.97 g
Eggs Hatch (%) (10,000 ppm, Replicate A): 0%
Eggs Viable [8]: 0 g
Number of Ticks Laying Eggs (Day 13) [8]: 8
Eggs Weight [8]: 0.57 g
Eggs Hatch (%) (10,000 ppm, Replicate B): 0%
Eggs Viable [9]: 0 g
Number of Ticks Laying Eggs (Day 13) [9]: 2
Eggs Weight [9]: 0.14 g
Eggs Hatch (%) (10,000 ppm, Replicate C): 0%
Eggs Viable [10]: 0 g
Number of Ticks Laying Eggs (Day 13) [10]: 8
Eggs Weight [10]: 0.59 g
Eggs Hatch (%) (100,000 ppm, Replicate A): 0%
Eggs Viable [11]: 0 g
Number of Ticks Laying Eggs (Day 13) [11]: 8
Eggs Weight [11]: 0.39 g
Eggs Hatch (%) (100,000 ppm, Replicate B): 0%
Eggs Viable [12]: 0 g
Number of Ticks Laying Eggs (Day 13) [12]: 2
Eggs Weight [12]: 0.05 g
Eggs Hatch (%) (100,000 ppm, Replicate C): 0%
inhibition at 100 ppm (Treatment 2: 100 ppm, compared to control, read-out: Reduction Viable Egg Mass Per Tick): 0%
inhibition at 100 ppm (Treatment 2: 100 ppm, compared to control, read-out: Reduction in Viable Egg Mass): 0%
inhibition at 1000 ppm (Treatment 3: 1,000 ppm, compared to control, read-out: Reduction Viable Egg Mass Per Tick): 78%
inhibition at 1000 ppm (Treatment 3: 1,000 ppm, compared to control, read-out: Reduction in Viable Egg Mass): 79%
inhibition at 10000 ppm (Treatment 4: 10,000 ppm, compared to control, read-out: Reduction Viable Egg Mass Per Tick): 100%
inhibition at 10000 ppm (Treatment 4: 10,000 ppm, compared to control, read-out: Reduction in Viable Egg Mass): 100%
inhibition at 100000 ppm (Treatment 5: 100,000 ppm, compared to control, read-out: Reduction Viable Egg Mass Per Tick): 100%
inhibition at 100000 ppm (Treatment 5: 100,000 ppm, compared to control, read-out: Reduction in Viable Egg Mass): 100%
Egg Mass Per Tick (Treatment 2: 100 ppm): 0.169 g
Total Egg Mass (Treatment 2: 100 ppm): 3.38 g
Total Viable Egg Mass (Treatment 2: 100 ppm): 3.19 g
Viable Egg Mass Per Tick (Treatment 2: 100 ppm): 0.160 g
Reduction in Ticks Laying Eggs (Treatment 2: 100 ppm, compared to control): 0%
Egg Mass Per Tick Reduction [13]: 28%
Reduction of Total Egg Mass [13]: 32%
Egg Mass Per Tick (Treatment 3: 1,000 ppm): 0.119 g
Total Egg Mass (Treatment 3: 1,000 ppm): 2.26 g
Total Viable Egg Mass (Treatment 3: 1,000 ppm): 0.65 g
Viable Egg Mass Per Tick (Treatment 3: 1,000 ppm): 0.034 g
Reduction in Ticks Laying Eggs [13]: 5%
Egg Mass Per Tick Reduction [14]: 49%
Reduction Viable Egg Mass Per Tick [14]: 100%
Reduction of Total Egg Mass [14]: 49%
Egg Mass Per Tick (Treatment 4: 10,000 ppm): 0.084 g
Total Egg Mass (Treatment 4: 10,000 ppm): 1.68 g
Total Viable Egg Mass (Treatment 4: 10,000 ppm): 0 g
Viable Egg Mass Per Tick (Treatment 4: 10,000 ppm): 0 g
Reduction in Ticks Laying Eggs [14]: 0%
Egg Mass Per Tick Reduction [15]: 65%
Reduction in Viable Egg Mass [15]: 100%
Reduction of Total Egg Mass [15]: 69%
Egg Mass Per Tick (Treatment 5: 100,000 ppm): 0.057 g
Total Egg Mass (Treatment 5: 100,000 ppm): 1.03 g
Total Viable Egg Mass (Treatment 5: 100,000 ppm): 0 g
Viable Egg Mass Per Tick (Treatment 5: 100,000 ppm): 0 g
Reduction in Ticks Laying Eggs [15]: 10%
